Test: recombinant UMI read abundance after kanamycin selection (control-corrected) (log10(CPM+1)); higher = more efficient recombination; extreme values may be limits of the assay; sequences stand for … in AGTGCAGAGAAAATCGGCCAGTTTTCTCTGCCTGCAGTCCGCATGCCGTGGGACCCCTTGGGTTCTAACCTGTTGCCTAGATTTATGCAGCGGACTGCCTTTCTCCCAAAGTGATAAACCGG…AGGTTGGTTTCACT; site = the 11-nt donor
Protocol: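 Pooled E. coli donor-specificity screen for the IS621 bridge recombinase. Each library member carries a reprogrammed 11-nt donor and a full-length LE bridge RNA expressed in cis from the natural promoter, with a paired donor-binding loop (8-nt LDG + 4-nt RDG) and a target-binding loop fixed to T5. It is co-electroporated with a T5 target plasmid; recombinase is induced with 0.07 mM IPTG and recombinants are selected on kanamycin. UMIs are counted as CPM, averaged over two biological replicates and corrected by the unselected control. Molecule = full bridge RNA written as DNA, built from the T5 scaffold: LDG = donor specificity nt 1-8, RDG = reverse complement of nt 8-11.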
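Note: IS621 bridge recombinase in Escherichia coli cells against a fixed T5 target plasmid.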

| Sequence | recombinant UMI read abundance (log10) |
| --- | --- |
| ACTAGTGCATGGACCGGTTTTCCCGGTAATCCGTATTTGGA (site ACTAGTGCTGC) | 0 |
| ACTAGTGCATGGACCGGTTTTCCCGGTAATCCGTATTTGGA (site ACTAGTGCTTC) | 1.36 |
| ACTATAGCATGGACCGGTTTTCCCGGTAATCCGTATTTGCA (site ACTATAGCTTG) | 1.94 |
| ACTCAAGCATGGACCGGTTTTCCCGGTAATCCGTATTTGTT (site ACTCAAGCTAA) | 1.72 |
| ACTCCAGCATGGACCGGTTTTCCCGGTAATCCGTATTTGTG (site ACTCCAGCTCA) | 0.753 |
| ACTCGAGCATGGACCGGTTTTCCCGGTAATCCGTATTTGCT (site ACTCGAGCTAG) | 1.64 |
| ACTCTAGCATGGACCGGTTTTCCCGGTAATCCGTATTTGCC (site ACTCTAGCTGG) | 0 |
| ACTGAATCATGGACCGGTTTTCCCGGTAATCCGTATTTGCC (site ACTGAATCTGG) | 2.1 |
| ACTGCATCATGGACCGGTTTTCCCGGTAATCCGTATTTGGA (site ACTGCATCTTC) | 1.22 |
| ACTGGAACATGGACCGGTTTTCCCGGTAATCCGTATTTGAG (site ACTAGAACTCT) | 1.69 |
| ACTGGAACATGGACCGGTTTTCCCGGTAATCCGTATTTGAG (site ACTCGAACTCT) | 0.239 |
| ACTGGAACATGGACCGGTTTTCCCGGTAATCCGTATTTGAG (site ACTGGAACTCT) | 2.11 |
| ACTGGAACATGGACCGGTTTTCCCGGTAATCCGTATTTGAG (site ACTTGAACTCT) | 0.0249 |
| ACTGGAGCATGGACCGGTTTTCCCGGTAATCCGTATTTGCT (site ACTGGAGCTAG) | 1.86 |
| ACTGGATCATGGACCGGTTTTCCCGGTAATCCGTATTTGAG (site ACTGGATCTCT) | 2.41 |
| ACTGGATCATGGACCGGTTTTCCCGGTAATCCGTATTTGCA (site ACAGTATCTTG) | 0.973 |
| ACTGGATCATGGACCGGTTTTCCCGGTAATCCGTATTTGCA (site ACTGGATCTTG) | 1.64 |
| ACTGGGACATGGACCGGTTTTCCCGGTAATCCGTATTTGAG (site ACTGGGACTCT) | 1.39 |
| ACTGGTACATGGACCGGTTTTCCCGGTAATCCGTATTTGAA (site ACTGGTACTTT) | 1.1 |
| ACTGTATCATGGACCGGTTTTCCCGGTAATCCGTATTTGAA (site ACAGTATCTTG) | 0 |
| ACTGTATCATGGACCGGTTTTCCCGGTAATCCGTATTTGAA (site ACTGTATCTTT) | 1.99 |
| ACTGTATCATGGACCGGTTTTCCCGGTAATCCGTATTTGCA (site ACAGTATCTTG) | 1.82 |
| ACTGTATCATGGACCGGTTTTCCCGGTAATCCGTATTTGCA (site ACCGTATCTTG) | 1.91 |
| ACTGTATCATGGACCGGTTTTCCCGGTAATCCGTATTTGCA (site ACGGTATCTTG) | 1.96 |
| ACTGTATCATGGACCGGTTTTCCCGGTAATCCGTATTTGCA (site ACTGTATCTTG) | 2.57 |
| ACTTAGACATGGACCGGTTTTCCCGGTAATCCGTATTTGGT (site ACTTAGACTAC) | 1.15 |

| Sequence | recombinant UMI read abundance (log10) |
| --- | --- |
| ACTTGATCATGGACCGGTTTTCCCGGTAATCCGTATTTGCG (site ACTTGATCTCG) | 1.57 |
| ACTTTAACATGGACCGGTTTTCCCGGTAATCCGTATTTGGT (site ACTTTAACTAC) | 0.85 |
| AGAAAAACATGGACCGGTTTTCCCGGTAATCCGTATTTGCA (site AGAAAAACTTG) | 2.23 |
| AGAAAAACATGGACCGGTTTTCCCGGTAATCCGTATTTGCA (site AGGAAGACTTG) | 0 |
| AGAAAGGCATGGACCGGTTTTCCCGGTAATCCGTATTTGCC (site AGAAAGGCTAG) | 0 |
| AGAAAGGCATGGACCGGTTTTCCCGGTAATCCGTATTTGCC (site AGAAAGGCTCG) | 0.784 |
| AGAAAGGCATGGACCGGTTTTCCCGGTAATCCGTATTTGCC (site AGAAAGGCTGG) | 1.78 |
| AGAAAGGCATGGACCGGTTTTCCCGGTAATCCGTATTTGCC (site AGAAAGGCTTG) | 1.79 |
| AGAAAGGCATGGACCGGTTTTCCCGGTAATCCGTATTTGGT (site AGAAAGGCTAA) | 1.65 |
| AGAAAGGCATGGACCGGTTTTCCCGGTAATCCGTATTTGGT (site AGAAAGGCTAC) | 0.881 |
| AGAAAGGCATGGACCGGTTTTCCCGGTAATCCGTATTTGGT (site AGAAAGGCTAG) | 0.34 |
| AGAAAGGCATGGACCGGTTTTCCCGGTAATCCGTATTTGGT (site AGAAAGGCTAT) | 0.986 |
| AGAAAGGCATGGACCGGTTTTCCCGGTAATCCGTATTTGTT (site AGAAAGGCTAA) | 1.99 |
| AGAAAGGCATGGACCGGTTTTCCCGGTAATCCGTATTTGTT (site AGAAAGGCTAC) | 0 |
| AGAAAGGCATGGACCGGTTTTCCCGGTAATCCGTATTTGTT (site AGAAAGGCTAG) | 1.47 |
| AGAAAGGCATGGACCGGTTTTCCCGGTAATCCGTATTTGTT (site AGAAAGGCTAT) | 0.97 |
| AGAAAGTCATGGACCGGTTTTCCCGGTAATCCGTATTTGCA (site AGAAAGTCTTG) | 2.65 |
| AGAAAGTCATGGACCGGTTTTCCCGGTAATCCGTATTTGCA (site AGGAAGACTTG) | 0 |
| AGAAATCCATGGACCGGTTTTCCCGGTAATCCGTATTTGTT (site AGAAATCCTAA) | 0.589 |
| AGAAATCCATGGACCGGTTTTCCCGGTAATCCGTATTTGTT (site CGGAATCCTAA) | 0.00278 |
| AGAAATGCATGGACCGGTTTTCCCGGTAATCCGTATTTGAG (site AGAAATGCTCT) | 2.88 |
| AGAAATGCATGGACCGGTTTTCCCGGTAATCCGTATTTGCC (site AGAAATGCTGG) | 1.67 |
| AGAATGCCATGGACCGGTTTTCCCGGTAATCCGTATTTGAC (site AGAATGCCTGT) | 0 |
| AGACACCCATGGACCGGTTTTCCCGGTAATCCGTATTTGCA (site AGACACCCTTG) | 1.15 |
| AGACGAGCATGGACCGGTTTTCCCGGTAATCCGTATTTGCG (site AGACGAGCTCG) | 2.67 |
| AGACTTGCATGGACCGGTTTTCCCGGTAATCCGTATTTGTA (site AGACTTGCTTA) | 0.887 |

From the supplement of paper PMC11208160
